Read-outs that look alike come from different tables or passages of the source.
Assays:
[1] = test system: CD11b expression in THP-1 (AML) cells; assay: LSD-1 CD11b cellular assay (flow cytometry); conditions: Homo sapiens, THP-1, 96 h, read-out: THP-1 IC50
human LSD-1 = human LSD-1 (Homo sapiens (Human), UniProt O60341); assay: In vitro enzyme inhibition assay LSD-1 (TR-FRET); type: biochemical; conditions: TR-FRET, H3K4me1-biotin labeled peptide
Description: This assay determines the ability of a test compound to inhibit LSD-1 demethylase activity.
The enzymatic assay of LSD-1 activity is based on Time Resolved-Fluorescence Resonance Energy Transfer (TR-FRET) detection.

[2] = test system: Kasumi-1 AML cancer cell line; assay: Kasumi-1 AML cell line proliferation assay (Cell-MTS); type: cell-based; conditions: Homo sapiens, 168 hours
Description: Colorimetric cellular assay to assess the ability of LSD-1 small molecule inhibitors to effect the proliferation of the established AML cancer cell line Kasumi-1
This Cell-MTS assay is a 7-day plate based colorimetric assay which quantifies the amount of newly generated NADH in the presence and absence of test compound. These NADH levels are used as a proxy for the quantification of cancer cell proliferation.
The established cancer cell line Kasumi-1 with a verified p53 mutation were purchased from American Type Culture Collection (ATCC) and routinely passaged according to ATCC published protocols. For routine assay these cells were seeded at a density of 20,000 cells per 96-well. […] At the end of this compound incubation period, 80 μl of media is removed and 20 μL of CellTiter 96® AQueous Non-Radioactive Cell Proliferation Assay solution (Promega) is added. The cells are incubated until the OD490 is >0.6. IC50 values are calculated using the IDBS XLfit software package and include background subtracted OD490 values and normalization to DMSO controls.

[3] = test system: LXFS 573 SCLC patient-derived xenograft
[4] = Etoposide 24 mg/kg/day SC days 1-3 + vehicle

| SMILES | IC50 [1] [nM] | IC50 (human LSD-1) [nM] | IC50 [2] [nM] | further results |
| --- | --- | --- | --- | --- |
| COc1cc([C@@H]2c3cc4c(cc3[C@@H](O[C@@H]3O[C@@H]5CO[C@@H](C)O[C@H]5[C@H](O)[C@H]3O)[C@H]3COC(=O)[C@H]23)OCO4)cc(OC)c1O [Etoposide, etoposide, reference compound] |  |  |  | % TGD (NCI-H1417 SCLC xenograft; 24 mg/kg Etoposide SC QD x 3): 92%; T − C (NCI-H1417 SCLC xenograft; 24 mg/kg Etoposide SC QD x 3): 24 days; median TTE (NCI-H1417 SCLC xenograft; 24 mg/kg Etoposide SC QD x 3): 50 days; median TTE (NCI-H1417 SCLC xenograft; etoposide monotherapy 24 mg/kg SC QD×3): 50 days; % TGD [3, 4]: 50%; T − C [3, 4]: 21 days; median TTE [3, 4]: 63 days; median TTE ([3]; etoposide monotherapy 24 mg/kg SC): 63 days |
| COc1ccc(-c2c(-c3ccc(C#N)c(F)c3)nc(N3CC[C@@H](N)C3)n(C)c2=O)cc1F [Example 27, 4-[2-((3R)-3-aminopyrrolidinyl)-5-(3-fluoro-4-methoxyphenyl)-1-methyl-6-oxohydropyrimidin-4-yl]-2-fluorobenzenecarbonitrile] | < 100 | < 100 |  |  |
| COc1ccc(-c2c(-c3ccc(C#N)c(F)c3)nc(NC[C@H]3CCNC3)n(C)c2=O)cc1 [Example 51, 2-fluoro-4-{5-(4-methoxy-phenyl)-1-methyl-6-oxo-2-[(3S)-(pyrrolidin-3-ylmethyl)-amino]-1,6-dihydro-pyrimidin-4-yl}-benzonitrile] | 100 to 1000 | < 100 |  |  |
| CCc1ccc(-c2c(-c3ccc(C#N)cc3)nc(N3CCC(N)CC3)n(C)c2=O)cn1 [Example 10, 4-[2-(4-amino-piperidin-1-yl)-5-(6-ethyl-pyridin-3-yl)-1-methyl-6-oxo-1,6-dihydro-pyrimidin-4-yl]-benzonitrile] | 100 to 1000 | < 100 |  |  |
| Cn1c(N2CCC(N)CC2)nc(-c2ccc(C#N)c(F)c2)c(-c2ccc3cn[nH]c3c2)c1=O [Example 77, 4-[2-(4-amino-piperidin-1-yl)-5-(1H-indazol-6-yl)-1-methyl-6-oxo-1,6-dihydro-pyrimidin-4-yl]-2-fluoro-benzonitrile] | < 100 | < 100 |  |  |
| CCOc1ncc(-c2c(-c3ccc(C#N)c(F)c3)nc(N3CCC(N)CC3)n(C)c2=O)cc1F [Example 93, 4-[2-(4-aminopiperidin-1-yl)-5-(6-ethoxy-5-fluoropyridin-3-yl)-1-methyl-6-oxopyrimidin-4-yl]-2-fluorobenzonitrile] | < 100 | < 100 |  |  |
| COc1ccc(-c2c(-c3ccc(C#N)cc3)nc(N3CCC(N)CC3)n(C)c2=O)cn1 [Example 3, 4-[2-(4-amino-piperidin-1-yl)-5-(6-methoxy-pyridin-3-yl)-1-methyl-6-oxo-1,6-dihydro-pyrimidin-4-yl]-benzonitrile] | < 100 | < 100 | < 100 |  |
| Cc1ccc(-c2c(-c3ccc(C#N)cc3)nc(N3CCC(N)CC3)n(C)c2=O)cn1 [Example 4, 4-[2-(4-amino-piperidin-1-yl)-1-methyl-5-(6-methyl-pyridin-3-yl)-6-oxo-1,6-dihydro-pyrimidin-4-yl]-benzonitrile] | < 100 | < 100 | 100 to 1000 |  |
| CN(C)C1CCN(c2nc(-c3ccc(C#N)c(F)c3)c(-c3ccc4nn(C)cc4c3)c(=O)n2C)CC1 [Example 71, 4-[2-(4-dimethylamino-piperidin-1-yl)-1-methyl-5-(2-methyl-2H-indazol-5-yl)-6-oxo-1,6-dihydro-pyrimidin-4-yl]-2-fluoro-benzonitrile] | < 100 | < 100 | < 100 |  |
| Cn1c(N2CCC(N)CC2)nc(-c2ccc(C#N)c(F)c2)c(-c2cnn(CC(F)(F)F)c2)c1=O [Example 34, 4-{2-(4-amino-piperidin-1-yl)-1-methyl-6-oxo-5-[1-(2,2,2-trifluoro-ethyl)-1H-pyrazol-4-yl]-1,6-dihydro-pyrimidin-4-yl}-2-fluoro-benzonitrile] | < 100 | < 100 | < 100 |  |

The next lines start with results.

| IC50 [1] [nM] | IC50 (human LSD-1) [nM] | IC50 [2] [nM] | SMILES | further results |
| --- | --- | --- | --- | --- |
| < 100 | < 100 | < 100 | COc1ccc(-c2c(-c3ccc(C#N)c(F)c3)nc(N3CCC(N)CC3)n(C)c2=O)cc1 [Example 6, 4-[2-(4-amino-piperidin-1-yl)-5-(4-methoxy-phenyl)-1-methyl-6-oxo-1,6-dihydro-pyrimidin-4-yl]-2-fluoro-benzonitrile] |  |
| < 100 |  | < 100 | Cn1cc2cc(-c3c(-c4ccc(C#N)cc4)nc(N4CCC(N)CC4)n(C)c3=O)ccc2n1 [Example 24, 4-[2-(4-aminopiperidyl)-1-methyl-5-(2-methyl(2H-indazol-5-yl))-6-oxohydropyrimidin-4-yl]benzenecarbonitrile] |  |
| < 100 | < 100 | < 100 | Cc1ccc(-c2c(-c3ccc(C#N)c(F)c3)nc(N3CCC(N)CC3)n(C)c2=O)cn1 [Example 9] |  |
| < 100 | < 100 | < 100 | Cn1cc2cc(-c3c(-c4ccc(C#N)c(F)c4)nc(N4CCCNCC4)n(C)c3=O)ccc2n1 [Example 66, 4-[2-[1,4]diazepan-1-yl-1-methyl-5-(2-methyl-2H-indazol-5-yl)-6-oxo-1,6-dihydro-pyrimidin-4-yl]-2-fluoro-benzonitrile] |  |
| < 100 | < 100 | < 100 | Cn1c(N2CCC(N)CC2)nc(-c2ccc(C#N)cc2)c(-c2cnn(CC(F)(F)F)c2)c1=O [Example 36, 4-{2-(4-amino-piperidin-1-yl)-1-methyl-6-oxo-5-[1-(2,2,2-trifluoro-ethyl)-1H-pyrazol-4-yl]-1,6-dihydro-pyrimidin-4-yl}-benzonitrile] |  |
| < 100 | < 100 | < 100 | COc1ccc(-c2c(-c3ccc(C#N)c(F)c3)nc(N3CCC(N)CC3)n(C)c2=O)cn1 [Example 8, 4-[2-(4-amino-piperidin-1-yl)-5-(6-methoxy-pyridin-3-yl)-1-methyl-6-oxo-1,6-dihydro-pyrimidin-4-yl]-2-fluoro-benzonitrile] |  |
| < 100 |  | < 100 | Cn1c(N2CCC(N)CC2)nc(-c2ccc(C#N)c(F)c2)c(-c2ccc3c(cnn3C)c2)c1=O [Example 35, 4-[2-(4-amino-piperidin-1-yl)-1-methyl-5-(1-methyl-1H-indazol-5-yl)-6-oxo-1,6-dihydro-pyrimidin-4-yl]-2-fluoro-benzonitrile] |  |
| < 100 | < 100 | < 100 | Cn1c(N2CCC(N)CC2)nc(-c2ccc(C#N)c(F)c2)c(-c2ccc3[nH]ncc3c2)c1=O [Example 88, 4-[2-(4-aminopiperidin-1-yl)-5-(1H-indazol-5-yl)-1-methyl-6-oxopyrimidin-4-yl]-2-fluorobenzonitrile] |  |
| < 100 | < 100 |  | COCCOc1ccc(-c2c(-c3ccc(C#N)c(F)c3)nc(N3CCC(N)CC3)n(C)c2=O)cc1 [Example 98, 4-[2-(4-aminopiperidin-1-yl)-5-[4-(2-methoxyethoxy)phenyl]-1-methyl-6-oxopyrimidin-4-yl]-2-fluorobenzonitrile] |  |
| < 100 | < 100 |  | CNc1ccc(-c2c(-c3ccc(C#N)c(F)c3)nc(N3CCC(N)CC3)n(C)c2=O)cc1F [Example 91, 4-[2-(4-aminopiperidin-1-yl)-5-[3-fluoro-4-(methylamino)phenyl]-1-methyl-6-oxopyrimidin-4-yl]-2-fluorobenzonitrile] |  |
| < 100 | < 100 |  | CNC1CCN(c2nc(-c3ccc(C#N)c(F)c3)c(-c3ccc4c(cnn4C)c3)c(=O)n2C)CC1 [Example 87, 2-fluoro-4-[1-methyl-2-[4-(methylamino)piperidin-1-yl]-5-(1-methylindazol-5-yl)-6-oxopyrimidin-4-yl] benzonitrile] |  |
| < 100 | < 100 |  | COc1ccc(-c2c(-c3ccc(C#N)c(F)c3)nc(N3CCC(N(C)C)CC3)n(C)c2=O)cn1 [Example 92, 4-[2-[4-(dimethylamino)piperidin-1-yl]-5-(6-methoxypyridin-3-yl)-1-methyl-6-oxopyrimidin-4-yl]-2-fluorobenzonitrile] |  |
| < 100 | < 100 | < 100 | CNC1CCN(c2nc(-c3ccc(C#N)c(F)c3)c(-c3ccc4nn(C)cc4c3)c(=O)n2C)CC1 [Example 65, 2-fluoro-4-[1-methyl-2-(4-methylamino-piperidin-1-yl)-5-(2-methyl-2H-indazol-5-yl)-6-oxo-1,6-dihydro-pyrimidin-4-yl]-benzonitrile] |  |

— US10328077B2 (CELGENE CORPORATION, priority 2016, dated 2019)
